Patent US7091040B1, “P450/acetaminophen genetically directed enzyme prodrug therapy (GDEPT)” (Innovata PLC, priority 1999, dated 2006)

Assays:
[1] = test system: SK-OV-3 cells; experiment: Bystander effect on viability of SK-OV-3 cells co-cultured with H1A2 MZ cells in the presence of acetaminophen, trypan blue exclusion; type: cell-based, human; settings: for viability at 4000 µM: Homo sapiens
Procedure: (§1) Tumour cells or V79 MZ cells (non transfected, parental cells) were co-cultured overnight with various mixtures of H1A2 MZ cells (as indicated in the Table), washed with PBS and incubated with 4 mM acetaminophen in PBS for 6 h at 37° C. the cells were then washed once with PBS and maintained for either 24 or 48 h in culture medium appropriate to each cell type, as detailed in the Methods section. At 0, 6, 24 or 48 h the cells were washed in PBS and viability of the mixed cell population determined by trypan blue exclusion. The data shown are mean values±SEM of 4 separate determinations. Statistical significance was determined at each time point by comparing viability measurements in the mixed cell populations with both the viability determined at 0 h and in the absence of H1A2 MZ cells in the mixture 2×2 contingency tables using the 2-tailed Chi-squared test with Yate's correction. Viability was determined in a total of 1500 cells at each time point. Levels of significance are indicated as **p<0.001; ***p<0.0001;
(§2) For cell viability experiments 200,000 cells per well were plated on 12 well plates (Beckton-Dickenson, Oxford, UK), using the medium and conditions required by the tumour cell line and allowed to adhere overnight. After this the cells were washed with PBS before the addition of acetaminophen in 0.1 ml PBS (concentrations of 0.1–20 mM acetaminophen were dissolved in PBS by sonication) and then maintained at 37° C. At the appropriate time points, cells were removed from the plates by trypsinisation and collected by centrifugation. Cell viability was measured as ability to exclude trypan blue. Cells were counted at ×100 magnification using an Improved Neubauer haemocytometer; all cell counts are the mean of duplicate determinations of five fields from duplicate experiments.
(§3) V79 MZ Chinese hamster cells were maintained in Dulbecco-Vogt's modified Eagle's Medium (DMEM) supplemented with 10% foetal calf serum 9FCS), 2 mM L-glutamine, penicillin (100 U/ml and streptomycin (100 μg/ml) (all tissue culture reagents were obtained from Gibco BRL, Paisley, UK). H1A2 MZ cells, which are V79 MZ cells transfected with the human CYP1A2 gene, were also maintained in supplemented DMEM with the addition of geneticin at a concentration of 4 mg/ml. SK-OV-3 cells were grown in DMEM supplemented with 15% FCS and 2 mM L-glutamine, without the addition of antibiotics. RPMI-1640 medium with 10% FCS, 2 mM L-glutamine, penicillin (100 U/ml) and streptomycin ([…]) was required by the HCT116 cells. These cell lines were maintained at 37° C. with 100% humidity and 5% CO2. […] At confluence cells were removed from tissue culture flasks by inubation with trypsin-EDTA for 5 min, diluted 1:3–1:6 in fresh medium and seeded onto fresh flasks. The tumour cell lines were obtained from the European Collection of Cell Cultures.

[2] = test system: HCT116 cells; experiment: Bystander effect on viability of HCT116 cells co-cultured with H1A2 MZ cells in the presence of acetaminophen, trypan blue exclusion; type: cell-based, human; settings: for viability at 4000 µM: Homo sapiens
Procedure: as §1, §2, §3

[3] = Bystander effect on viability of MDA-MB-361 cells co-cultured with H1A2 MZ cells in the presence of acetaminophen, trypan blue exclusion; type: cell-based, human; settings: human; for viability at 4 mM: 4 mM acetaminophen 6 h; for viability at 0 h, 4 mM / viability at 6 h, 4 mM: 4 mM acetaminophen in PBS
Procedure: as §1, §2, §3

[4] = test system: MDA-MB-361 cells; experiment: as above; type: cell-based, human; settings: for viability at 4000 µM: Homo sapiens
Procedure: as §1, §2, §3

[5] = test system: COS cells; experiment: Viability of COS cells transiently transfected with mouse CYP1A2 versus non-transfected COS cells, tritiated thymidine incorporation; type: cell-based
Procedure: FIG. 1 is a graphical representation of an acetaminophen titration showing the sensitivity of COS cells transiently transfected with a vector incorporating mouse CYP1A2 and non-transfected control COS cells. Cell viability is monitored by tritiated thymidine incorporation;
FIG. 2 is a cell viability time course of COS cells transiently transfected with mouse CYP1A2 and non-transfected control COS cells over a 24 hr period.
Acetaminophen concentration is 10 mM. Cell viability is monitored by tritiated thymidine incorporation;
COS cells are plated at 1.5×10^5 per well in 6 well tissue culture dishes the evening before transfection. […] All tissue culture reagents can be obtained from Gibco BRL, Paisley, UK.
To the LPA/DNA complex, 200 μl of serum free medium is added to each LPA/DNA sample which is then gently added to the cells over a period of 3–4 seconds. Cells are returned to a 37° C. CO2 incubator for 6 hours. […]
Transfected COS cells are either exposed to various concentrations of acetaminophen or incubated in the presence of 10 mM acetaminophen and cell viability monitored with time. ^3H-thymidine (Amersham International UK, 100 Ci/mmol, 5 μCi per assay), is added to treated and control cultures and aliquots removed and acid precipitable counts assessed by liquid scintillation using a Beckton Liquid Scintillation Counter.

[6] = MDA-MB-361 cells + 10% H1A2 MZ cells
[7] = MDA-MB-361 cells + 25% H1A2 MZ cells
[8] = MDA-MB-361 cells + 50% H1A2 MZ cells

CC(=O)Nc1ccc(O)cc1 [acetaminophen]
viability at 4000 µM ([1]; SK-OV-3, 0 h, SK-OV-3 cells + 5% H1A2 MZ cells, 4 mM acetaminophen in PBS, 0 h): 98 ± 1% | viability at 4000 µM ([1]; SK-OV-3, 0 h, SK-OV-3 cells + 10% H1A2 MZ cells, 4 mM acetaminophen in PBS, 0 h): 98 ± 1% | viability at 4000 µM ([1]; SK-OV-3, 0 h, SK-OV-3 cells + 25% H1A2 MZ cells, 4 mM acetaminophen in PBS, 0 h): 97 ± 1% | viability at 4000 µM ([1]; SK-OV-3, 0 h, SK-OV-3 cells + 50% H1A2 MZ cells, 4 mM acetaminophen in PBS, 0 h): 98 ± 1% | viability at 4000 µM ([1]; SK-OV-3, 0 h, SK-OV-3 cells, 0% H1A2 MZ cells, 4 mM acetaminophen in PBS, 0 h): 97 ± 1% | viability at 4000 µM ([1]; SK-OV-3, 6 h, SK-OV-3 cells + 5% H1A2 MZ cells, 4 mM acetaminophen in PBS, 6 h): 55 ± 2% | viability at 4000 µM ([1]; SK-OV-3, 6 h, SK-OV-3 cells + 10% H1A2 MZ cells, 4 mM acetaminophen in PBS, 6 h): 43 ± 7% | viability at 4000 µM ([1]; SK-OV-3, 6 h, SK-OV-3 cells + 25% H1A2 MZ cells, 4 mM acetaminophen in PBS, 6 h): 22 ± 11% | viability at 4000 µM ([1]; SK-OV-3, 6 h, SK-OV-3 cells + 50% H1A2 MZ cells, 4 mM acetaminophen in PBS, 6 h): 16 ± 9% | viability at 4000 µM ([1]; SK-OV-3, 6 h, SK-OV-3 cells, 0% H1A2 MZ cells, 4 mM acetaminophen in PBS, 6 h): 98 ± 2% | viability at 4000 µM ([1]; SK-OV-3, SK-OV-3 cells + 5% H1A2 MZ cells, 4 mM acetaminophen 6 h, then 24 h in culture medium): 0% | viability at 4000 µM ([1]; SK-OV-3, SK-OV-3 cells + 10% H1A2 MZ cells, 4 mM acetaminophen 6 h, then 24 h in culture medium): 0% | viability at 4000 µM ([1]; SK-OV-3, SK-OV-3 cells + 25% H1A2 MZ cells, 4 mM acetaminophen 6 h, then 24 h in culture medium): 0% | viability at 4000 µM ([1]; SK-OV-3, SK-OV-3 cells + 50% H1A2 MZ cells, 4 mM acetaminophen 6 h, then 24 h in culture medium): 0% | viability at 4000 µM ([1]; SK-OV-3, SK-OV-3 cells, 0% H1A2 MZ cells, 4 mM acetaminophen 6 h, then 24 h in culture medium): 96 ± 3% | Viability (%) ([1]; SK-OV-3 cells + 5% H1A2 MZ cells, 4 mM acetaminophen 6 h, then 24 h in culture medium): zero | susceptibility to cytotoxicity produced by the activation of acetaminophen ([1]; SK-OV-3 cells mixed with H1A2 MZ cells, 4 mM acetaminophen, 6 h): highly sensitive | Viability (%) ([2]; HCT116 cells + 5% H1A2 MZ cells, 4 mM acetaminophen 6 h, then 24 h in culture medium): zero | susceptibility to cytotoxicity produced by the activation of acetaminophen ([2]; HCT116 cells incubated with 5 and 10% H1A2 MZ cells, 4 mM acetaminophen, 6 h): disproportionate decrease in viability | viability at 4000 µM ([2]; HCT-116, 0 h, HCT116 cells + 5% H1A2 MZ cells, 4 mM acetaminophen in PBS, 0 h): 98 ± 1% | viability at 4000 µM ([2]; HCT-116, 0 h, HCT116 cells + 10% H1A2 MZ cells, 4 mM acetaminophen in PBS, 0 h): 98 ± 1% | viability at 4000 µM ([2]; HCT-116, 0 h, HCT116 cells + 25% H1A2 MZ cells, 4 mM acetaminophen in PBS, 0 h): 97 ± 1% | viability at 4000 µM ([2]; HCT-116, 0 h, HCT116 cells + 50% H1A2 MZ cells, 4 mM acetaminophen in PBS, 0 h): 98 ± 1% | viability at 4000 µM ([2]; HCT-116, 0 h, HCT116 cells, 0% H1A2 MZ cells, 4 mM acetaminophen in PBS, 0 h): 96 ± 1% | viability at 4000 µM ([2]; HCT-116, 6 h, HCT116 cells + 5% H1A2 MZ cells, 4 mM acetaminophen in PBS, 6 h): 69 ± 9% | viability at 4000 µM ([2]; HCT-116, 6 h, HCT116 cells + 10% H1A2 MZ cells, 4 mM acetaminophen in PBS, 6 h): 60 ± 6% | viability at 4000 µM ([2]; HCT-116, 6 h, HCT116 cells + 25% H1A2 MZ cells, 4 mM acetaminophen in PBS, 6 h): 56 ± 4% | viability at 4000 µM ([2]; HCT-116, 6 h, HCT116 cells + 50% H1A2 MZ cells, 4 mM acetaminophen in PBS, 6 h): 42 ± 6% | viability at 4000 µM ([2]; HCT-116, 6 h, HCT116 cells, 0% H1A2 MZ cells, 4 mM acetaminophen in PBS, 6 h): 96 ± 5% | viability at 4000 µM ([2]; HCT-116, HCT116 cells + 5% H1A2 MZ cells, 4 mM acetaminophen 6 h, then 24 h in culture medium): 0% | viability at 4000 µM ([2]; HCT-116, HCT116 cells + 10% H1A2 MZ cells, 4 mM acetaminophen 6 h, then 24 h in culture medium): 0% | viability at 4000 µM ([2]; HCT-116, HCT116 cells + 25% H1A2 MZ cells, 4 mM acetaminophen 6 h, then 24 h in culture medium): 0% | viability at 4000 µM ([2]; HCT-116, HCT116 cells + 50% H1A2 MZ cells, 4 mM acetaminophen 6 h, then 24 h in culture medium): 0% | viability at 4000 µM ([2]; HCT-116, HCT116 cells, 0% H1A2 MZ cells, 4 mM acetaminophen 6 h, then 24 h in culture medium): 96 ± 2% | viability at 4 mM ([3]; MDA-MB-361 cells + 5% H1A2 MZ cells, then 24 h in culture medium): 84 ± 7% | viability at 4 mM ([3]; MDA-MB-361 cells + 5% H1A2 MZ cells, then 48 h in culture medium): 92 ± 4% | viability at 4 mM ([3]; MDA-MB-361 cells + 10% H1A2 MZ cells, then 24 h in culture medium): 81 ± 9% | viability at 4 mM ([3]; MDA-MB-361 cells + 10% H1A2 MZ cells, then 48 h in culture medium): 94 ± 7% | viability at 0 h, 4 mM [3, 6]: 96 ± 3% | viability at 6 h, 4 mM [3, 6]: 74 ± 7% | viability at 4 mM ([3]; MDA-MB-361 cells + 25% H1A2 MZ cells, then 24 h in culture medium): 78 ± 9% | viability at 4 mM ([3]; MDA-MB-361 cells + 25% H1A2 MZ cells, then 48 h in culture medium): 91 ± 6% | viability at 0 h, 4 mM [3, 7]: 97 ± 1% | viability at 6 h, 4 mM [3, 7]: 70 ± 11% | viability at 4 mM ([3]; MDA-MB-361 cells + 50% H1A2 MZ cells, then 48 h in culture medium): 0% | viability at 0 h, 4 mM [3, 8]: 98 ± 3% | viability at 6 h, 4 mM [3, 8]: 42 ± 4% | viability at 4000 µM ([4]; MDA-MB-361, 0 h, MDA-MB-361 cells + 5% H1A2 MZ cells, 4 mM acetaminophen in PBS, 0 h): 98 ± 2% | viability at 4000 µM ([4]; MDA-MB-361, 0 h, MDA-MB-361 cells, 0% H1A2 MZ cells, 4 mM acetaminophen in PBS, 0 h): 96 ± 1% | viability at 4000 µM ([4]; MDA-MB-361, 6 h, MDA-MB-361 cells + 5% H1A2 MZ cells, 4 mM acetaminophen in PBS, 6 h): 85 ± 2% | viability at 4000 µM ([4]; MDA-MB-361, 6 h, MDA-MB-361 cells, 0% H1A2 MZ cells, 4 mM acetaminophen in PBS, 6 h): 98 ± 4% | viability at 4000 µM ([4]; MDA-MB-361, MDA-MB-361 cells + 50% H1A2 MZ cells, 4 mM acetaminophen 6 h, then 24 h in culture medium): 18% | viability at 4000 µM ([4]; MDA-MB-361, MDA-MB-361 cells, 0% H1A2 MZ cells, 4 mM acetaminophen 6 h, then 24 h in culture medium): 95 ± 3% | viability at 4000 µM ([4]; MDA-MB-361, MDA-MB-361 cells, 0% H1A2 MZ cells, 4 mM acetaminophen 6 h, then 48 h in culture medium): 97 ± 1% | Viability (%) ([4]; MDA-MB-361 cells + 50% H1A2 MZ cells, 4 mM acetaminophen 6 h, then 48 h in culture medium): no viable cells | susceptibility to cytotoxicity produced by the activation of acetaminophen ([4]; MDA-MB-361 cells mixed with H1A2 MZ cells, 4 mM acetaminophen, 6 h): highly resistant to cytotoxicity | extent of acetaminophen sensitivity over time (tritiated thymidine incorporation) ([5]; 10 mM acetaminophen, transfected COS cells versus non-transfected control cells over 24 hrs): increases markedly during the first 4–8 hrs | sensitivity to acetaminophen (tritiated thymidine incorporation) ([5]; acetaminophen titration, COS cells transfected with CYP1A2 (48 hrs expression) versus non-transfected control COS cells): significant increase in sensitivity
